Measured values as given in publication PMC7996900 (Microorganisms, 2021).

Target: SUMOHis6-GdpX6^GGDEF (GdpX6, PXO_02019) (Xanthomonas oryzae, UniProt A0A0K0GND9)
Test: biochemical

Chain of SUMOHis6-GdpX6^GGDEF (GdpX6, PXO_02019) (A0A0K0GND9 318-494 limits assumed): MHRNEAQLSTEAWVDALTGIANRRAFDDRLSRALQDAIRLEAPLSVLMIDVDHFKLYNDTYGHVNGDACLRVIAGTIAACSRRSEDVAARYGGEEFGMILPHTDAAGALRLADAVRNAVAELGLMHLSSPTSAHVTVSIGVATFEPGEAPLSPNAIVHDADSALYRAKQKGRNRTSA

In the case of `Nc1nc2c(ncn2[C@@H]2O[C@@H]3CO[P@](=O)(O)O[C@H]4[C@@H](O)[C@H](n5cnc6c(=O)[nH]c(N)nc65)O[C@@H]4CO[P@](=O)(O)O[C@H]3[C@H]2O)c(=O)[nH]1` [c-di-GMP], the Kd is reported as 9 ± 2.98 µM.
